Values joined by “and” are separate entries in the source; they are usually repeats but may differ in a detail not shown here. Equal values may be shown once. Read-outs that look alike come from different tables or passages of the source.
Tests used:
[1] = cited from earlier work
[2] = cited from earlier work; remark: listed apart in the source
[3] = cited from earlier work; remark: listed apart in the source
sugar beet leaves = settings: amorphous wax surface; cited from earlier work
kohlrabi leaves = settings: fine crystalline wax surface; cited from earlier work
[4] = Filter paper test: ten 10-ml water washings, UV analysis of AI washed through; format: physicochemical; settings: for R (rating factor, number of washings to deplete the AI): ten 10-ml water washings; for mobility on filter paper or soil: washed with several 10 ml aliquots of water
From the text: All of the polymers in this set of experiments were combined with the AI at a 70% AI by weight to 30% polymer by weight concentrations. […] The filter paper samples were applied to a slightly wet Buchner funnel to set the paper evenly and then ten 10-ml aliquots of de-ionized (DI) water were suctioned through the filter paper. Ultraviolet light (UV) analysis for each of the 10-ml fractions was used to determine the absorption of the AI (264 nm) washed through the filter paper and recorded as absorption versus each individual 10-ml wash.
The control for these systems was evaluated by placing methylene chloride solutions of the AI alone or the polymer alone onto the filter paper, drying overnight, and washing with ten 10-ml aliquots of DI water.
The AI was dry ground (mortar and pestle) with urea-formaldehyde flower foam as the cage material [commercial product (Foliage Fresh)] where the ratio of AI to flower foam was 70%/30% by weight. This mixture then was tumbled-coated with an organic solvent solution of a hydrophobic polymer (paraffin wax/hexane; polystyrene/toluene; silicone oil/toluene) in a round bottom flask. […] Small amounts (0.07 g) of the powder were placed on the filter paper and subsequently washed with ten 10-ml aliquots of DI water and analyzed in a similar manner as previously described.
Liquid samples of the AI-polymer combinations and AI control samples were applied to filter paper (Whatman #2) and dried for 24 hours at room temperature. The filter paper containing the AI-polymer combination or the AI control samples were placed in a Buchner funnel under water aspiration vacuum conditions, while ten 10-ml aliquots of water were applied to the top of the filter paper containing the AI-polymer or AI control material, which was then sucked through the filter paper and collected in the receiving flask that holds the funnel-vacuum attachment.
After each 10-ml aliquot of water was suctioned through the filter paper containing the sample, the suctioned solution then was removed and analyzed with a UV spectrometer for any AI that went through the water washing process. The ten 10-ml sequential washings were a simulation of how an AI applied to soil would remain on the soil and migrate through the soil under a rain environmental exposure condition.
Dry 100% solid samples were placed on the filter paper directly and subsequently washed with ten 10-ml aliquots in a similar manner as the liquid samples that were dried after placement on the filter paper.
Various concentrations of the AI's were dissolved in water or water and a co-solvent and analyzed at 254 nm or other UV/visible regions of the spectrum in order to establish a standard calibration curve of absorbance versus AI concentration.

[5] = Soil column test: topsoil column washed with ten 10-ml aliquots of water; format: physicochemical
Protocol: The soil column was prepared by cutting off the tip of a 15 ml VWR brand CAT, No. 20171-036 polypropylene centrifuge tube leaving approximately a ⅛-inch opening, which was filled with cotton to prevent the soil from pouring out the bottom. The cotton block was 0.5-inch thick, which held unpacked 3 inches of Nature's topsoil from the Michigan Peat Co., (Oakland Nursery). The topsoil was sieved ten times through a #7 metal screen sieve to remove large debris before filling the tubes.
A 50-μl sample of the mixture was applied to the filter paper and dried while a 200-μl sample was applied to the top of the soil columns and dried before washing with ten 10-ml aliquots of water.

[6] = Table 26, USDA Pesticide Properties Database
[7] = filter paper, 10-ml water washing 6
[8] = filter paper, 10-ml water washing 7
[9] = filter paper, 10-ml water washing 8
[10] = filter paper, 10-ml water washing 9
[11] = filter paper, 10-ml water washing 10, * = not all released after 10 washings

SMILES: CON(C)C(=O)Nc1ccc(Cl)c(Cl)c1 [Linuron]
- KOC [1, 6]: 400 mg/g
- KOC ([1]; Tables 21-25): 620
- Water Solubility [2]: 63.8 µg/mL

SMILES: c1ccc2[nH]c(-c3cscn3)nc2c1 [Thiabendazole]
- KOC ([1]; Tables 21-25): 2500
- Log P [3]: 2.39
- Water Solubility [2]: 30 µg/mL

SMILES: O=C(O)CNCP(=O)(O)O [Glyphosate]
- capability to penetrate leaf surfaces (sugar beet leaves): very little capability to penetrate leaf surfaces
- capability to penetrate leaf surfaces (kohlrabi leaves): very little capability to penetrate leaf surfaces

SMILES: CC(C)N.O=C(O)COc1ccc(Cl)cc1Cl [2,4-D Amine Salt (Control)]
- R Values ([4]; R line of the washing table, filter paper): 2
- % released ([4]; washing 1, sample applied to filter paper and dried): 94%
- % released ([4]; washing 2, sample applied to filter paper and dried): 6%
- % released ([4]; washing 4, sample applied to filter paper and dried): 0%
- % released ([4]; washing 5, sample applied to filter paper and dried): 0%
- % released ([4]; washing 6, sample applied to filter paper and dried): 0%
- % released ([4]; washing 7, sample applied to filter paper and dried): 0%
- % released ([4]; washing 8, sample applied to filter paper and dried): 0%
- % released ([4]; washing 9, sample applied to filter paper and dried): 0%
- % released ([4]; washing 10, * = not all of the sample was released after 10 washings): 0%
- % released ([4]; washing 33, sample applied to filter paper and dried): 0%

SMILES: CC(C)N.O=C(O)COc1ccc(Cl)cc1Cl [2,4-D Amine Salt]
- % released ([5]; 10-ml water washing 1): 32%
- % released ([5]; 10-ml water washing 2): 26%
- % released ([5]; 10-ml water washing 3): 20%
- % released ([5]; 10-ml water washing 4): 13%
- % released ([5]; 10-ml water washing 5): 9%
- % released ([5]; 10-ml water washing 6): 0%
- % released ([5]; 10-ml water washing 7): 0%
- % released ([5]; 10-ml water washing 8): 0%
- % released ([5]; 10-ml water washing 9): 0%
- % released ([5]; 10-ml water washing 10): 0%
- R (rating factor, number of washings to deplete the AI) ([5]; ten 10-ml water washings): 5
- number of 10-ml water washes to pass through / be depleted from the filter paper [4]: 1-2 washes
- controlled-release properties (in words) ([4]; filter paper, 10-ml aliquots of water): no control release capabilities
- % released ([4]; filter paper, 10-ml water washing 1): 94%
- % released ([4]; filter paper, 10-ml water washing 1, listed as 2,4-D Salt): 86%
- % released ([4]; filter paper, 10-ml water washing 2): 6%
- % released ([4]; filter paper, 10-ml water washing 2, listed as 2,4-D Salt): 14%
- % released ([4]; filter paper, 10-ml water washing 3): 0%
- % released ([4]; filter paper, 10-ml water washing 4): 0%
- % released ([4]; filter paper, 10-ml water washing 5): 0%
- % released [4, 7]: 0%
- % released [4, 8]: 0%
- % released [4, 9]: 0%
- % released [4, 10]: 0%
- % released [4, 11]: 0%
- R (rating factor, number of washings to deplete the AI) ([4]; filter paper): 2

SMILES: COc1c(Cl)ccc(Cl)c1C(=O)O [Dicamba]
- KOC [1, 6]: 2 mg/g
- KOC ([1]; Tables 21-25): 12
- Log P [3]: −1.88
- Water Solubility [2]: 250000 µg/mL

SMILES: CC(C)C1(C)N=C(c2ncccc2C(=O)O)NC1=O (stereo not drawn) [Imazapyr]
- % released ([4]; filter paper, 10-ml water washing 1, listed as AI Control): 49%
- % released ([4]; filter paper, 10-ml water washing 1, listed as IMI Acid): 41%
- % released ([4]; filter paper, 10-ml water washing 1, listed as IMI acid alone): 28%
- % released ([4]; filter paper, 10-ml water washing 2, listed as AI Control): 47% and 49%
- % released ([4]; filter paper, 10-ml water washing 2, listed as IMI Acid): 39% and 37%
- % released ([4]; filter paper, 10-ml water washing 2, listed as IMI acid alone): 30%
- % released ([4]; filter paper, 10-ml water washing 3, listed as AI Control): 4% and 2%
- % released ([4]; filter paper, 10-ml water washing 3, listed as IMI Acid): 14%
- % released ([4]; filter paper, 10-ml water washing 3, listed as IMI acid alone): 25%
- % released ([4]; filter paper, 10-ml water washing 4, listed as AI Control): 0%
- % released ([4]; filter paper, 10-ml water washing 4, listed as IMI Acid): 6% and 5%
- % released ([4]; filter paper, 10-ml water washing 4, listed as IMI acid alone): 13%
- % released ([4]; filter paper, 10-ml water washing 5, listed as AI Control): 0%
- % released ([4]; filter paper, 10-ml water washing 5, listed as IMI Acid): 0%
- % released ([4]; filter paper, 10-ml water washing 5, listed as IMI acid alone): 4%
- % released [4, 7]: 0%
- % released [4, 8]: 0%
- % released [4, 9]: 0%
- % released [4, 10]: 0%
- % released [4, 11]: 0%
- R (rating factor, number of washings to deplete the AI) ([4]; filter paper, listed as AI Control): 3
- R (rating factor, number of washings to deplete the AI) ([4]; filter paper, listed as AI control): 3
- R (rating factor, number of washings to deplete the AI) ([4]; filter paper, listed as IMI Acid): 4
- R (rating factor, number of washings to deplete the AI) ([4]; filter paper, listed as IMI acid alone): 5

SMILES: CC(COc1ccc(Oc2ccccc2)cc1)Oc1ccccn1 (stereo not drawn) [Pyriproxyfen]
- Koc ([1]; clay-loam soils): 58,000
- % released ([4]; filter paper/soil release system, washing 1 (first line)): 0%
- % released ([4]; filter paper/soil release system, washing 3): 0%
- % released ([4]; filter paper/soil release system, washing printed 1 (second line)): 0%
- mobility on filter paper or soil [4]: no mobility
- mobility on filter paper or soil ([4]; listed as PPF): did not move with any of the water washes

SMILES: CCCCN(C)C(=O)Nc1ccc(Cl)c(Cl)c1 [Neburon]
- KOC ([1]; Tables 21-25): 2500
- Log P [3]: 3.8

SMILES: CN(C)C(=O)Nc1ccccc1 [Fenuron]
- KOC ([1]; Tables 21-25): 42
- Log P [3]: 0.98
- Water Solubility [2]: 3850 µg/mL

— patent publication US9801371B2, “Self-assembling polymer particle release system” (priority 2010, dated 2017)
